Test system: E. coli
Experiment: E. coli colony counts, Membrane Filter Count Method, Country Park Lake water
Assay type: cell-based, Escherichia coli
Protocol: These pellets were used to evaluate the removal of Escherichia coli (commonly E. coli) from publicly accessible water. […] Recreational use of the publicly accessible water in this area is restricted due to high E. coli concentrations that can lead to illness.
Water samples including control water samples and publicly accessible water samples (from Country Park Lake) at concentrations of 1 ml, 0.1 ml, 0.01 ml, and 0.001 ml were prepared for evaluation.
The water samples were filtered through 5 μm filters and bacteria was cultured in petri dishes with m-Endo broth (e.g., commercially available form BD Diagnostic Systems Sparks, Md.) for 24-hours at 35° C. If E. coli was present in the filtered water sample, metallic purple/red E. coli colonies would grow on the filter in the petri dish. For this analysis, the larger the water sample filtered, the higher the concentration of E. coli which would grow within the 24-hour window. To analyze the amount of E. coli on the filter, the goal was to determine the appropriate water dilution amount to obtain filters where the number of colonies could be counted. If the filter was covered with E. coli, the petri dish was classified as “To numerous to count”. When an acceptable number of countable colonies was obtained, the number of colonies/100 ml was calculated for the water sample.

For `O=S(=O)([O-])OO.[K+]` [Oxone ® compound, potassium hydrogen peroxymonosulfate sulfate (5:3:2:2)], the “E. coli Colony Counts, 0.1 ml dilution plates” value was “No colonies”, the “E. coli Colony Counts, 1 ml dilution plates” value was “No colonies” and the “E. coli Colony Counts, Average 24 hours # colonies/100 ml” value was “No colonies”. For the same molecule, the “Removal of E. coli from treated water” value was “complete removal”.

Reference: US8519061B2, “Controlled release remediation system and composition” (North Carolina A&T State University, priority 2008, dated 2013)
